Experimental data reported in the Deep4Chem optical property database.

Experiment: solvent given as SMILES

`F[Si-](F)(c1ccccc1)(c1ccccc1)c1cccc2ccccc12` showed an absorption maximum (in C1CCOC1) of 286 nm.

Molecule `CC(C)(C)c1ccc(C2=C(c3ccc(-n4c5ccc(C(C)(C)C)cc5c5cc(C(C)(C)C)ccc54)cc3)S(=O)(=O)c3c2sc(-c2ccc(-n4c5ccc(C(C)(C)C)cc5c5cc(C(C)(C)C)ccc54)cc2)c3-c2ccc(C(C)(C)C)cc2)cc1` has an absorption maximum (in C1CCOC1) of 429 nm.

With `CN1C(=CC2=C([S-])C(=CC3=[N+](C)c4ccccc4C3(C)C)C2=O)C(C)(C)c2ccccc21` the absorption maximum (in ClC(Cl)Cl) was 650 nm.

Molecule `CCCCCCCCCCOc1cc(OCCCCCCCCCC)cc(C2=C3C(/C=C/c4ccc(OC)cc4)=CC(/C=C/c4ccc(OC)cc4)=[N+]3[B-](F)(F)n3c(/C=C/c4ccc(OC)cc4)cc(C=Cc4ccc(OC)cc4)c32)c1` has an absorption maximum (in ClC(Cl)Cl) of 689 nm.

Work on `CCN(CC)c1ccc2c(-c3ccccc3C(=O)O)c3c([o+]c2c1)/C(=C/c1ccc2c(c1)c1ccccc1n2CC)CCC3` yielded an absorption maximum (in ClCCl) of 646 nm.

Molecule `COC(=O)c1ccc(C2=C3C(C)=CC(C)=[N+]3[B-](F)(F)n3c(/C=C/c4c[nH]cn4)cc(C)c32)cc1` has an absorption maximum (in ClC(Cl)Cl) of 572 nm.

Molecule `O=C1CCCC2=C1CC1=C(CCCC1=O)N2NC(=O)c1ccc(O)cc1` has an absorption maximum (in CC#N) of 368 nm, an absorption maximum (in CC(C)=O) of 368 nm and an absorption maximum (in CCCCCO) of 376 nm. The absorption maximum (in CO) was 376 nm, the absorption maximum (in ClC(Cl)Cl) was 368 nm and the absorption maximum (in ClCCl) was 372 nm.

Work on `CN(C)c1ccc(/C=C/c2cnc(C#Cc3ccc(C#N)cc3)o2)cc1` yielded an absorption maximum (in ClCCl) of 390 nm.

With `CCCCCCCCCCCCOc1cc2c3cc(OCCCCCCCCCCCC)c(OCCCCCCCCCCCC)cc3c3c(cc(OCCCCCCCCCCCC)c4nc5cc(C#Cc6ccc(OCCCC)cc6)c(C#Cc6ccc(OCCCC)cc6)cc5nc43)c2cc1OCCCCCCCCCCCC` the absorption maximum (in ClC(Cl)Cl) was 485 nm.

Work on `CCC1=C(C)C2=C(C)c3c(C)c(CC)c(C)n3[B-](F)(F)[N+]2=C1C` yielded an absorption maximum (in C1CCCCC1) of 522.5 nm, an absorption maximum (in C1CCOC1) of 518.4 nm and an absorption maximum (in C1COCCO1) of 518.6 nm. The absorption maximum (in CC#N) was 514.8 nm, the absorption maximum (in CC(C)=O) was 516 nm and the absorption maximum (in CC(C)O) was 518.8 nm. For the same molecule, the absorption maximum (in CCC(C)C) was 520.4 nm, the absorption maximum (in CCCCCC) was 521.1 nm and the absorption maximum (in CCCCCCCC) was 521.2 nm. For the same molecule, the absorption maximum (in CCCCCCCCCCO) was 521.8 nm, the absorption maximum (in CCCCCCCCO) was 521 nm and the absorption maximum (in CCCCCCO) was 520.4 nm. It also gave an absorption maximum (in CCCCO) of 519.4 nm, an absorption maximum (in CCCO) of 518.9 nm and an absorption maximum (in CCO) of 517.7 nm. The absorption maximum (in CCOC(C)=O) was 516.4 nm, the absorption maximum (in CCOCC) was 518.8 nm and the absorption maximum (in CN1CCCC1=O) was 518.2 nm. The absorption maximum (in CN(C)C=O) was 517.1 nm, the absorption maximum (in CO) was 516.2 nm and the absorption maximum (in Cc1ccccc1) was 522.5 nm. It also gave an absorption maximum (in ClCCl) of 520 nm, an absorption maximum (in OCC(F)(F)F) of 515.7 nm and an absorption maximum (in OCCO) of 518 nm. It also gave an absorption maximum (in OCCOc1ccccc1) of 522.3 nm and an absorption maximum (in c1ccccc1) of 522.7 nm.

Molecule `N#Cc1c(-n2c3ccccc3c3cc(Br)ccc32)c(C#N)c(-n2c3ccccc3c3cc(Br)ccc32)c(-n2c3ccccc3c3cc(Br)ccc32)c1-n1c2ccccc2c2cc(Br)ccc21` has an absorption maximum (in Cc1ccccc1) of 381 nm.

For `C[P+]1(c2ccccc2)c2ccccc2-c2sc3ccccc3c21` (stereo not drawn), the absorption maximum (in CC#N) was 335 nm, the absorption maximum (in CCO) was 336 nm and the absorption maximum (in ClCCl) was 340 nm.

`CC1(C)CC(/N=C/c2ccc3ccc4cccc5ccc2c3c45)CC(C)(C)N1` gave an absorption maximum (in C1CCCCC1) of 360 nm, an absorption maximum (in CC#N) of 358 nm and an absorption maximum (in CO) of 359 nm. For the same molecule, the absorption maximum (in ClC(Cl)Cl) was 361 nm.

For `O=Cc1ccc(C2=Cc3ccccc3P2(=O)c2ccccc2)cc1` (stereo not drawn), the absorption maximum (in ClCCl) was 357 nm.

With `CN(C)c1ccc(C=C2Oc3cccc(O)c3C2=O)cc1` the absorption maximum (in CC#N) was 449 nm.

With `CCCCCOc1cc2oc(=O)c3c4occc4c4ccc5cccc6c(c1)c2c3c4c56` the absorption maximum (in C1CCOC1) was 422 nm.

In the case of `Cc1cc(-c2ccccc2)nc2c1ccc1nc(-c3ccccc3)cn12`, the absorption maximum (in CC#N) is reported as 347 nm, the absorption maximum (in CCCCOC(C)=O) is reported as 350 nm and the absorption maximum (in CCOC(C)=O) is reported as 352 nm. It also gave an absorption maximum (in CO) of 345 nm, an absorption maximum (in ClC(Cl)Cl) of 350 nm and an absorption maximum (in ClCCl) of 348 nm. The absorption maximum (in c1ccccc1) was 351 nm.

With `CC(C)(C)C1Nc2c(Cl)cc(Cl)cc2C(=O)N1Cc1ccccc1` (stereo not drawn) the absorption maximum (in CC#N) was 360 nm, the absorption maximum (in CCCCCCCCCCCCCCCC) was 350 nm and the absorption maximum (in CO) was 367 nm. The absorption maximum (in ClC(Cl)Cl) was 357 nm and the absorption maximum (in c1ccccc1) was 355 nm.

In the case of `CCc1ccc(C2=[N+]3C(=Cc4c5ccc(OC)cc5c(-c5ccc(CC)s5)n4[B-]3(F)F)c3ccc(OC)cc32)s1`, the absorption maximum (in ClCCl) is reported as 727 nm.

With `CCCCCCOc1cc(/C=C2\C(=O)c3ccccc3C2=C(C#N)C#N)c(OCCCCCC)cc1/C=C1\C(=O)c2ccccc2C1=C(C#N)C#N` the absorption maximum (in ClCCl) was 548 nm.

With `CCCCCCCCCCCCCCCCCCOc1ccc(C#Cc2cc3nc4c(OCCCCCCCCCCCC)cc5c6cc(OCCCCCCCCCCCC)c(OCCCCCCCCCCCC)cc6c6cc(OCCCCCCCCCCCC)c(OCCCCCCCCCCCC)cc6c5c4nc3cc2C#Cc2ccc(OCCCCCCCCCCCCCCCCCC)cc2)cc1` the absorption maximum (in ClC(Cl)Cl) was 487 nm.

Molecule `COc1ccc(-c2c3ccccc3c(C#Cc3ccccc3)c3cc4cc(C)sc4cc23)cc1` has an absorption maximum (in ClCCl) of 481 nm.

`F[B-]1(F)n2c(-c3ccccc3)cc(-c3ccccn3)c2N=C2C(c3ccccn3)=CC(c3ccccc3)=[N+]21` gave an absorption maximum (in CC#N) of 655 nm.
